Experimental data from patent CN110179802A (priority 2019, dated 2019).

Legend:
[1] = tested on: Staphylococcus aureus (金黄色葡萄球菌); settings: cited from earlier work
HIa gene (HIa基因) = experiment: Real-time PCR of HIa gene transcription in MRSA43300
MRSA43300 = experiment: Antibacterial activity against MRSA43300; assay type: cell-based, Staphylococcus aureus (MRSA43300)
agrA gene (agrA基因) = experiment: Real-time PCR of agrA gene transcription in MRSA43300
[2] = in vivo; cited from earlier work
α-hemolysin (α-溶血素) = assay type: cell-based, Staphylococcus aureus (MRSA43300)
Pyogeniccoccus (化脓链球菌) = settings: cited from earlier work
[3] = tested on: Mycoplasma pneumonia (肺炎支原体); settings: cited from earlier work
MRSA = settings: cited from earlier work
[4] = tested on: haemolytic activity of MRSA43300 culture supernatant on rabbit erythrocytes (MRSA43300培养物上清对兔红细胞的溶血活性); experiment: Haemolytic activity of MRSA43300 culture supernatant on rabbit erythrocytes after co-culture at sub-inhibitory concentrations; assay type: cell-based, MRSA 43300 (Staphylococcus aureus); rabbit erythrocytes; settings: for inhibition rate of haemolysis: 16 h at 37℃ with MRSA43300, 543 nm
[5] = tested on: Streptococcus pyogenes (酿脓链球菌); settings: cited from earlier work
[6] = 1/2MIC, 1/4MIC, 1/8MIC, compared with control group

**Q.** For C=C[C@]1(C)C[C@@H](OC(=O)CSc2nc(N)cc(N)n2)[C@]2(C)[C@H](C)CC[C@]3(CCC(=O)[C@H]32)[C@@H](C)[C@@H]1O [14-O-[(4,6-二氨基嘧啶-2-基)巯乙酰基]姆体林], which antibacterial activity [1] is on record?
**A.** The antibacterial activity was “良好的抑菌活性”.

**Q.** And the “HIa gene transcription level” value (HIa gene (HIa基因); [6])?
**A.** Its value is “与对照组相比差异极显著”.

**Q.** What about the “HIa gene transcription level” value (HIa gene (HIa基因); 1/16MIC, compared with control group) of the same compound?
**A.** The value was “与对照组相比差异显著”.

**Q.** What about the “HIa gene transcription level” value (HIa gene (HIa基因); 1/32MIC) of the same compound?
**A.** The value was “不影响HIa基因转录水平”.

**Q.** And the antibacterial activity (MRSA43300)?
**A.** Its antibacterial activity is “较好抑菌活性”.

**Q.** What about the “agrA gene transcription level” value (agrA gene (agrA基因); [6]) of the same compound?
**A.** Its value is “与对照组相比差异显著”.

**Q.** What about the “agrA gene transcription level” value (agrA gene (agrA基因); 1/16MIC) of the same compound?
**A.** Its value is “没有明显的影响”.

**Q.** And the “agrA gene transcription level” value (agrA gene (agrA基因); 1/32MIC)?
**A.** Its value is “不影响agrA的基因转录水平”.

**Q.** And the toxicity [2]?
**A.** The toxicity was “毒性低”.

**Q.** What about the “content of α-hemolysin in culture supernatant” value (α-hemolysin (α-溶血素)) of the same compound?
**A.** The value was “能减少培养物上清中的α-溶血素的含量,且呈明显的浓度依赖性”.

**Q.** What about the antibacterial activity (Pyogeniccoccus (化脓链球菌)) of the same compound?
**A.** The antibacterial activity was “良好的抑菌活性”.

**Q.** What about the antibacterial activity [3] of the same compound?
**A.** The antibacterial activity was “良好的抑菌活性”.

**Q.** And the antibacterial activity (MRSA)?
**A.** Its antibacterial activity is “良好的抑菌活性”.

**Q.** What about the “inhibition rate of haemolysis” value ([4]; 1/2MIC) of the same compound?
**A.** The value was 97.24±1.15%.

**Q.** And the “inhibition rate of haemolysis” value ([4]; 1/4MIC)?
**A.** Its value is 96.4±2.1%.

**Q.** What about the “inhibition rate of haemolysis” value ([4]; 1/16MIC) of the same compound?
**A.** Its value is 31.5±7.86%.

**Q.** And the “inhibition of haemolytic activity, concentration dependence” value ([4]; sub-inhibitory concentrations, 1/2MIC to 1/32MIC)?
**A.** Its value is “抑制能力随药物浓度的升高而增强”.

**Q.** And the antibacterial activity [5]?
**A.** The antibacterial activity was “良好的抑菌活性”.
